Where two headings read alike, the source gives them in different places.

The subject of one series is mouse. In words: In vivo model test for drusen suppression (TNF-a induced drusen-like structure in retinal region). As to conditions: oral, 14 days; oxaprozin 600 mg/kg/day, epalrestat 600 mg/kg/day, zaltoprofen 40 mg/kg/day. How it is done:
In the vicinity of the retina in the posterior segment of eyeball of mouse, 400 ng of Recombinant Mouse TNF-a (R&D Systems, # 410-MT) was administered. After two weeks from administration, an eye ball was extracted, and a formalin-fixed, paraffin-embedded block was prepared. The tissue sample was deparaffinized by treating three times with xylene for 5 minutes each, twice with 100% ethanol for 1 minute each, with 90% ethanol for 1 minute, with 80% ethanol for 1 minute, with 70% ethanol for 1 minute, and with water for 5 minutes. Staining was conducted with a Mayer' s hematoxylin solution for 4 minutes, and with an eosin liquid for 1 minute. After treating for 5 minutes in flowing water, treatments were conducted with 70% ethanol for 1 minute, with 80% ethanol for 1 minute, with 90% ethanol for 1 minute, twice with 100% ethanol for 1 minute each, and three times with xylene for 5 minutes each, followed by mounting with Marinol. After drying for 15 minutes or more at room temperature, the untreated RPE cells, and the RPE cells in which inflammation is induced were observed. An eyeball tissue segment was prepared from a block. After incubation for 30 minutes in a gas-phase incubator at 56° C., the tissue sample was deparaffinized by treating three times with xylene for 5 minutes each, twice with 100% ethanol for 1 minute each, with 90% ethanol for 1 minute, with 80% ethanol for 1 minute, with 70% ethanol for 1 minute, and with water for 5 minutes. After removing a melanin pigment in tissues using Delicate Melanin Bleach Kit for Special Stains and IHC (Polysciences, # 24909-1) according to the manufacturer's protocol, a microwave treatment using a citrate buffer pH 6.0 was conducted for 10 minutes to activate the antigen. After standing still for 30 minutes at room temperature, treatments were conducted with PBS for 5 minutes, with a 3% hydrogen peroxide/PBS solution for 5 minutes, and with PBS for 5 minutes to inactivate an endogenous peroxidase. The sample was stood still in a 3% BSA/PBS solution for 30 minutes at room temperature to block the tissues. As primary antibodies, an anti-E-Cadherin antibody (BD Biosciences, # 610182) that was 500-fold diluted with a 1.5% BSA/PBS solution, and an anti-Cytokeratin antibody (Sigma, # C2931) that was 1000-fold diluted, and an anti-Fibronectin antibody (abcam, # 45688) that was 1000-fold diluted, and an anti-Vimentin antibody (Cell signaling Technology, # 5741) that was 100-fold diluted were added in an amount of 200 μL per one tissue, and caused to react with the tissues for 17 hours at 4° C. The tissues reacted with the primary antibodies were washed three times with PBS for 5 minutes each, then caused to react with a secondary antibody (a Mouse on Mouse (M. O. M.) Elite Peroxidase Kit (Vector Laboratories, # PK-2200) for the anti-E-Cadherin antibody and the anti-Cytokeratin antibody, and a VECTASTAIN Elite ABC Rabbit IgG Kit (Vector Laboratories, # PK-6101) for the anti-Fibronectin antibody and the anti-Vimentin antibody) for 30 minutes at room temperature, then washed three times with PBS for 5 minutes each, and then subjected to an ABC reaction for 30 minutes at room temperature according to the manufacturer's protocol. After washing the tissues three times with PBS for 5 minutes each, color development was caused for 3 minutes at room temperature using an ImmPACT AMEC Red Peroxidase (HRP) Substrate (Vector Laboratories, # SK-4285). The color-developed tissues were stained by using a New hematoxylin Type M (MUTO PURE CHEMICALS CO., LTD., # 30141), and then stood still in flowing water for 3 minutes, and treated with 70% ethanol for 1 minute, with 80% ethanol for 1 minute, with 90% ethanol for 1 minute, twice with 100% ethanol for 1 minute each, and three times with xylene for 5 minutes each, and mounted with the use of Marinol. After drying for 15 minutes or more at room temperature, observation was conducted. […]

The conditions of series [1]: cited from earlier work.
The next series relates to Vimentin. In words: Mouse laser irradiation model: EMT assessment, Vimentin staining. It counts as in vivo. As to conditions: 25 mg/kg orally once a day for three weeks. As for the experimental part: It is known that laser irradiation of a mouse ocular fundus induces choroidal angiogenesis and EMT (Reference document: Ishikawa, et al, Exp Eye Res. 2016 January; 142:19.25). So, zaltoprofen was assessed for the suppressive effect of CNV and EMT by using a mouse laser irradiation model. A zaltoprofen suspension was prepared by stirring 0.15 g of zaltoprofen (available from TOKYO CHEMICAL […] CO., LTD.) and 0.75 g of gum arabic (available from Wako Pure Chemical Industries, Ltd.) in 60 mL of water. A medium (Vehicle) was prepared by dissolving and stirring 0.75 g of gum arabic in 60 mL of water. Then, an ocular fundus of a C57BL/6J mouse (8-week old, N=13) was laser-irradiated at four points for each eye under a slit lump using a multi-color laser light coagulator. From directly after irradiation, a vehicle or a zaltoprofen solution (25 mg/kg) was orally administered once a day for three weeks, and the following assessments were conducted. For (1) and (3), the same individual was used. After three weeks from laser irradiation, mice were euthanatized by cervical dislocation, and eyeballs were extracted, and dipped and fixed in 4% paraformaldehyde phosphate buffer (available from Wako Pure Chemical Industries, Ltd.). […]

Where [2] appears, read: Table 3, from the interview form and the package insert of each drug, read-out: Cmax.
[3] abbreviates: quoted in Test examples 2-3, 2-4, 2-5, read-out: Cmax (as quoted in the VEGF test examples).

For the compound `O=C(O)CCc1nc(-c2ccccc2)c(-c2ccccc2)o1` [Oxaprozin, oxaprozin], in the series with mouse, the “Formation of a drusen-like structure (HE staining)” value is recorded as “apparently suppressed”, the “Immunostaining of E-Cadherin in retinal epithelial cells” value is given as “strongly positive staining was observed between cells”, the “Immunostaining of Fibronectin” value is “the signal strength of staining was small” and the “Shape of retinal pigment epithelial cells” value is recorded as “cells keeping a cubic shape were abundantly observed”. Besides, the Cmax in series [1] (Alvo tablet Interview Form, repeated-dose administration, read-out: Cmax) is 341 µM. The Cmax in series [1] (setting [2]) is 341 µM. Further, in series [1] (setting [3]), the Cmax was 341 µM.

With `CC(C(=O)O)c1ccc2c(c1)CC(=O)c1ccccc1S2` (centres unmarked) [Zaltoprofen, zaltoprofen], the “EMT in the laser irradiation model” value in the series with Vimentin is given as “suppresses EMT”. Besides, the Vimentin positive area entry in the series with Vimentin (versus Vehicle administration group) is “reduced”. Also, in the series on mouse, the “Formation of a drusen-like structure (HE staining)” value is reported as “apparently suppressed”, the “Immunostaining of E-Cadherin in retinal epithelial cells” value is “strongly positive staining was observed between cells”, the “Immunostaining of Fibronectin” value is on record as “the signal strength of staining was small” and the “Shape of retinal pigment epithelial cells” value is reported as “cells keeping a cubic shape were abundantly observed”. The Cmax in series [1] (Pharmaceutical Interview Form, single-dose administration, read-out: Cmax) is 20.4 µM. For the same compound, the Cmax in series [1] (Soleton tablet 80 Interview Form, single-dose administration, depending on the kind of the additive, read-out: Cmax) is 16.8 µM. The Cmax in series [1] (setting [2]) is 20.4 µM. The Cmax in series [1] (setting [3]) was 20.4 µM.

The values above are taken from patent publication US10761087B2, “Choroidal neovascularization suppressor or drusen formation suppressor, and method for assessing or screening for same” (Link Genomics, Inc., priority 2015, dated 2020).
